# From ChEMBL document CHEMBL1142720, “Fluoro-olefins as peptidomimetic inhibitors of dipeptidyl peptidases” (J Med Chem, 2005)
# Key:
# Dipeptidyl peptidase 2 = Dipeptidyl peptidase 2 (Homo sapiens, UniProt Q9UHL4); assay: Inhibitory concentration against human Dipeptidylpeptidase II
# Dipeptidyl peptidase 4 = Dipeptidyl peptidase 4 (Homo sapiens, UniProt P27487); assay: Inhibitory concentration against human Dipeptidylpeptidase IV
# Dipeptidyl peptidase 4, sequence (P27487 whole entry): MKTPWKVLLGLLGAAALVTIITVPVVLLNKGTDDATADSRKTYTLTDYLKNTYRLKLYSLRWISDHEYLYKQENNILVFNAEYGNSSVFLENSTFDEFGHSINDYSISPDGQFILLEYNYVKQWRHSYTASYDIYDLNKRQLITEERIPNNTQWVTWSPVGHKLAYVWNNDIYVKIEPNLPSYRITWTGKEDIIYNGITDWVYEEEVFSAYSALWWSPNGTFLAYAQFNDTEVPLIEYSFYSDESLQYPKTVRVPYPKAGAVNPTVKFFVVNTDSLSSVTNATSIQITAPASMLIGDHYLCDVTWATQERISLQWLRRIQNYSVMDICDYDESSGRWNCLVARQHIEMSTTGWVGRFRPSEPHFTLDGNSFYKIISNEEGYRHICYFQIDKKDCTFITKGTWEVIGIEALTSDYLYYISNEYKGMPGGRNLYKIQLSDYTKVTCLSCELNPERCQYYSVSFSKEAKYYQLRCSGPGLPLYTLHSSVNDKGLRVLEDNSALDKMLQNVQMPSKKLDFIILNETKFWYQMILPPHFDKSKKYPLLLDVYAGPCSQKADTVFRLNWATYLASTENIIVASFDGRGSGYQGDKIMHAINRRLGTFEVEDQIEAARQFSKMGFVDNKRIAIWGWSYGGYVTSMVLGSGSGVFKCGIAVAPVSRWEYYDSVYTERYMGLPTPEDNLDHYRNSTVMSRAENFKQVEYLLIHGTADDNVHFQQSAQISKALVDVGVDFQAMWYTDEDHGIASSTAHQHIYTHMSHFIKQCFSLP
IC50 (Dipeptidyl peptidase 2),IC50 (Dipeptidyl peptidase 4),SMILES
,> 250 µM,FC(CNCc1ccc(F)cc1)=C1CCCCC1
397 µM,> 1000 µM,O=C(CNCc1ccccc1)N1CCCCC1
,> 250 µM,FC(CNC1CCN(Cc2ccccc2)CC1)=C1CCCC1
,> 1000 µM,O=C(CNCc1ccc2c(c1)OCO2)N1CCCC1
,> 1000 µM,FC(CNCc1ccccc1)=C1CCCC1
,> 500 µM,N#CC1CCC/C1=C(\F)CNCc1ccc(F)cc1 (centres undefined)
,> 1000 µM,FC(CNC1CCNCC1)=C1CCCCC1
,> 250 µM,FC(CNCc1ccc2c(c1)OCO2)=C1CCCCC1
,> 250 µM,C(CNCc1ccc2c(c1)OCO2)=C1CCCC1
,> 1000 µM,COc1ccc(CNCC(F)=C2CCCC2)cc1
,> 1000 µM,C(CNCc1ccccc1)=C1CCCC1
> 100 µM,,N#CC1CCC/C1=C(/F)CNC12CC3CC(CC(C3)C1)C2 (centres undefined)
,> 250 µM,FC(CNc1ccccc1)=C1CCCCC1
,> 250 µM,FC(CNC1CCN(Cc2ccccc2)CC1)=C1CCCCC1
,> 1000 µM,FC(CNC1CCCCC1)=C1CCCC1
,> 1000 µM,O=C(CNCc1ccc2c(c1)OCO2)N1CCCCC1

# The next lines start with the molecule.
SMILES,IC50 (Dipeptidyl peptidase 2),IC50 (Dipeptidyl peptidase 4)
FC(CNC1CCCCC1)=C1CCCCC1,500 µM,> 500 µM
FC(CNCCc1ccccc1)=C1CCCCC1,,> 1000 µM
FC(CNCCc1ccccn1)=C1CCCC1,,> 1000 µM
C(CNC1CCCCC1)=C1CCCC1,,> 1000 µM
S=C(CNC1CCCCC1)N1CCCCC1,,> 1000 µM
CN(C)CCCNCC(F)=C1CCCCC1,,> 1000 µM
N#CC1CCC/C1=C(/F)CNCc1ccc(F)cc1 (centres undefined),,> 1000 µM
FC(CNCc1ccc(F)cc1)=C1CCCC1,,> 1000 µM
O=C(CNCc1ccccc1)N1CCCC1,500 µM,1000 µM
N#CC1CCC/C1=C(\F)CNC12CC3CC(CC(C3)C1)C2 (centres undefined),> 100 µM,
FC(CNCc1ccccc1)=C1CCCCC1,,> 1000 µM
O=C(CNC1CCCCC1)N1CCCC1,276 µM,148 µM
COc1ccc(CNCC(F)=C2CCCCC2)cc1,,> 250 µM
FC(CNC12CC3CC(CC(C3)C1)C2)=C1CCCCC1,,> 250 µM
CN1CCC(NCC(F)=C2CCCCC2)CC1,,> 125 µM
O=C(CNC1CCCCC1)N1CCCCC1,177 µM,> 1000 µM
S=C(CNCc1ccccc1)N1CCCCC1,,> 1000 µM
CN(C)CCCNCC(F)=C1CCCC1,,> 1000 µM
FC(CNCCc1ccccc1)=C1CCCC1,,> 1000 µM
N#CC1CCC/C1=C(\F)CNCCc1ccccc1 (centres undefined),,> 1000 µM
FC(CNCc1cccc(C(F)(F)F)c1)=C1CCCCC1,,> 125 µM
N#CC1CCC/C1=C(/F)CNCCc1ccccc1 (centres undefined),,> 500 µM
S=C(CNCc1ccc2c(c1)OCO2)N1CCCCC1,,> 1000 µM
